The text below walks through data of EPA's ToxValDB 9.5 (doi:10.2903/j.efsa.2007.106r).

Series [1] relates to Anas platyrhynchos. The note with it: for NOEL / NOEC: reproductive.
Series [2] has as its system Colinus virginianus. The note with it: for NOEL / NOEC: reproduction developmental.
Series [3] relates to Rattus norvegicus. The note with it: for LD50: acute, oral, mortality.
Series [4] deals with Canidae. The note with it: chronic; duration: 1 years; Dog Other; clinical chemistry.
Series [5] relates to Bibionidae. The note with it: chronic/long-term.
For series [6], the system named is Daphnia magna. The note with it: chronic/long-term.
In series [7] the test system is Folsomia candida. The note with it: chronic/long-term.
Series [8] concerns Oncorhynchus mykiss.
Series [9] deals with Mus musculus. The note with it: acute, oral, mortality.
Series [10] relates to Apis mellifera. The note with it: acute, mortality.
The subject of series [11] is Tagia sp.
The subject of series [12] is Typhlodromus pyri. The series can be described thus: LR50; higher = less toxic. The note with it: not reported; mortality.
For series [13], the system named is Aphidius rhopalosiphi. The series can be described thus: LR50; higher = less toxic. The note with it: chronic/long-term; mortality.
Setting [14] is: acute, duration: 5 days, oral, diet, mortality.

Molecules are shown by their SMILES. Converted amounts (≈) assume the structure as drawn. “And” between values parts separate entries of the source, which are not always exact repeats. Equal entries are not always repeated.

On to `OC(Cc1ccccc1Cl)(Cn1cncn1)C1(Cl)CC1` (stereo not drawn), for which the NOEL in series [1] (duration: 20 weeks, oral, feed) was 63 mg/kg-day; in series [2] (duration: 20 weeks, oral, diet), 14.8 mg/kg-day. Besides, the LD50 in series [2] (acute, oral, diet, mortality) is more than 297 mg/kg-day; in series [2] (acute, oral, mortality) it was more than 2000 mg/kg. Also, the NOAEL (as a rule, the highest tested level that showed no adverse finding) in series [3] (chronic, organ weight) was 1.1 mg/kg-day; in series [3] (developmental, development) it was 1 mg/kg-day.
For the compound `OC(Cc1ccccc1Cl)(Cn1[nH]cnc1=S)C1(Cl)CC1` (stereo not drawn) [Prothioconazole], the NOAEL in [4] worked out at 5 mg/kg-day; in series [3] (chronic, duration: 2 years, organ weight), 5 mg/kg-day; in series [3] (developmental, development), 20 mg/kg-day. The NOEC was not below 500 mg/kg in [1] (duration: 20 weeks); 700 mg/kg in series [1] (duration: 21 weeks); 9.14 mg/L in series [5]; 173 mg/kg-day in series [2] (duration: 20 weeks); not below 1000 mg/kg-day in [2] (duration: 22 weeks); 0.56 mg/L in series [6]. For the same compound, the NOEC in [7] was 64 mg/kg; in series [8] (chronic/long-term, other), 0.308 mg/L; in [11] (chronic/long-term), 1.33 mg/kg. In addition, the NOEL in series [1] (duration: 20 weeks) is 63 mg/kg-day; in series [1] (duration: 21 weeks) it was 78 mg/kg-day; in [2] (duration: 20 weeks) it was 14.8 mg/kg-day; in [2] (duration: 22 weeks) it was not below 86 mg/kg-day. Besides, the LD50 in [1] (short-term, duration: 5 days, oral, feed, mortality) is more than 2460 mg/kg-day; in series [2] (setting [14]), more than 1410 mg/kg-day; in series [2] (acute, oral, mortality), more than 2000 mg/kg; in series [9] (F), 3460 mg/kg; in series [9] (M), 2240 mg/kg-day; in series [10] (dermal) it was more than 200 µg/piece. Also, the LD50 in series [10] (oral, unspecified) is more than 71 µg/piece; in series [3] (F), 2510 mg/kg-day; in series [3] (M/F) it was more than 6200 mg/kg-day; in series [3] (M), 2810 mg/kg-day. The LC50 in series [1] (short-term, duration: 5 days, oral, feed, reproduction) was more than 5000 mg/kg; in series [2] (setting [14]) it was > 5000 mg/kg and 4090 mg/kg; in series [8] (acute, mortality), 1.83 µg/mL (≈ 5.32 µM); in series [11] (acute, mortality), more than 1000 mg/kg. For the same compound, the LR50 in [12] came to 18.7 g/ha; in series [13] it was 140 g/ha.
